This note sets out measurements from patent EP0303437A2, “Platinum triamine compounds containing nucleotides or nucleosides as antitumor agents” (ENGELHARD CORPORATION, priority 1987, dated 1989).

One experiment has as its system Sarcoma 180 Ascites. Nature of the experiment: Sarcoma 180 Ascites (S180a) antitumor screening. It is filed as in vivo, Female CFW mice. The conditions noted are these: for %ILS: ILS ≧ 50% indicates activity; for Surv: survivors per group of 6 mice at twice the MST of controls. How it is done:
(§1) Each of the compounds was evaluated in the Sarcoma 180 Ascites screen and at least some of the compounds were also evaluated in the L1210 Leukemia tumor models.
(§2) L1210 screening was conducted according to a published method. […] Female CDF₁ mice (16 - 22 g) were implanted with 1 x 10⁶ tumor cells ip on day zero. Compounds were administered in 0.5 mL water ip on day one. Groups of 6 mice were used for each dose. A control group of mice received only tumor and 0.5 mL water. A positive control group received tumor and 8 mg/kg cisplatin in 0.5 mL 0.15 M NaCl. The test was terminated after three times the mean survival time (MST) of the control group, surviving mice were counted as dying on that day. Activity was determined based on the percent increase in MST of test mice over controls (%ILS). […] The tumor line was maintained through weekly transfer of 5 x 10⁴ cells in DBA/2 mice.
Female CFW mice (18 - 25 g) were implanted with 2 x 10⁶ cells ip on day zero. Compounds were administered in 0.5 mL water ip on day one. Groups of 6 mice were used for each test dose as well as controls as defined above. The test was run for twice the MST of the control group, with survivors counted as dying on that day. An ILS of ≧ 50% indicates activity. The tumor line was maintained through weekly transfer of 4 x 10⁶ cells in CFW mice.

The subject of another experiment is L1210 Leukemia. The experiment is described as follows: L1210 Leukemia antitumor screening. It is filed as in vivo, Female CDF₁ mice. The conditions noted are these: for %ILS: ILS ≧ 25% represents activity; for Surv: survivors per group of 6 mice at three times the MST of controls. As to the method: as §1, §2
Setting [1] is: Dose 10 mg/kg ip in water on day one.
[2] abbreviates: Dose 20 mg/kg ip in water on day one.
[3] abbreviates: Dose 40 mg/kg ip in water on day one.
[4] abbreviates: Dose 80 mg/kg ip in water on day one.
The mark [5] stands for this setting: Dose 160 mg/kg ip in water on day one.
Where [6] appears, read: Dose 320 mg/kg ip in water on day one.
Where [7] appears, read: 8 mg/kg cisplatin in 0.5 mL 0.15 M NaCl, survivors per 6 mice, one value per experiment.

Values joined by “and” are separate entries in the source; they are usually repeats but may differ in a detail not shown here. Equal values may be shown once.

On to `N.N.Nc1ccn(C2OC(CO)C(O)C2O)c(=O)n1.O=[N+]([O-])[O-].[Cl-].[Pt+2]` [cis-[Pt(NH₃)₂(1-β-D-arabinofuranosylcytosine)Cl]NO₃], for which the “%ILS” value in the experiment with Sarcoma 180 Ascites (setting [1]) was -12%; with Sarcoma 180 Ascites (setting [2]), -3%; with Sarcoma 180 Ascites (setting [3]) it was 2%; with Sarcoma 180 Ascites (setting [4]) it was 42%; with Sarcoma 180 Ascites (setting [5]), 51%; in the experiment with Sarcoma 180 Ascites (setting [6]) it was 45%. For the same compound, the “%ILS” value is given as -22% in the experiment on L1210 Leukemia (setting [1]); -8% in the experiment with L1210 Leukemia (setting [2]); 0% in the experiment on L1210 Leukemia (setting [3]); 6% in the experiment with L1210 Leukemia (setting [4]); 10% with L1210 Leukemia (setting [5]); 10% in the experiment on L1210 Leukemia (setting [6]). The Surv in the experiment with Sarcoma 180 Ascites (Dose 10 mg/kg ip) is recorded as 0/6; in the experiment on Sarcoma 180 Ascites (Dose 20 mg/kg ip), 0/6; in the experiment on Sarcoma 180 Ascites (Dose 40 mg/kg ip), 0/6; in the experiment on Sarcoma 180 Ascites (Dose 80 mg/kg ip), 2/6; in the experiment on Sarcoma 180 Ascites (Dose 160 mg/kg ip), 1/6; in the experiment with Sarcoma 180 Ascites (Dose 320 mg/kg ip), 2/6. Also, the Surv with L1210 Leukemia (Dose 10 mg/kg ip), with L1210 Leukemia (Dose 20 mg/kg ip), with L1210 Leukemia (Dose 40 mg/kg ip), in the experiment with L1210 Leukemia (Dose 80 mg/kg ip), with L1210 Leukemia (Dose 160 mg/kg ip) and with L1210 Leukemia (Dose 320 mg/kg ip) was 0/6 each time.

For `N.N.Nc1ccn(C2CC(O)C(CO)O2)c(=O)n1.[Cl-].[Cl-].[Pt+2]` (stereo not drawn) [cis-[Pt(NH₃)₂(2′-deoxycytidine)Cl]Cl], the “%ILS” value in the experiment on Sarcoma 180 Ascites (setting [1]) is 10%; in the experiment on Sarcoma 180 Ascites (setting [2]), 34%; with Sarcoma 180 Ascites (setting [3]), 61%; in the experiment with Sarcoma 180 Ascites (setting [4]) it was 85%; with Sarcoma 180 Ascites (setting [5]) it was 76%; with Sarcoma 180 Ascites (setting [6]) it was 51%. For the same compound, the Surv is recorded as 0/6 in the experiment with Sarcoma 180 Ascites (Dose 10 mg/kg ip); 0/6 with Sarcoma 180 Ascites (Dose 20 mg/kg ip); 2/6 in the experiment on Sarcoma 180 Ascites (Dose 40 mg/kg ip); 3/6 in the experiment with Sarcoma 180 Ascites (Dose 80 mg/kg ip); 4/6 in the experiment with Sarcoma 180 Ascites (Dose 160 mg/kg ip); 1/6 in the experiment on Sarcoma 180 Ascites (Dose 320 mg/kg ip).

In the case of `Nc1ccn(C2OC(CO)C(O)C2O)c(=O)[n+]1[Pt]([NH2])([NH2])[Cl].O=[N+]([O-])[O-]` (stereo not drawn) [cis-[Pt(NH₃)₂(cytidine)Cl]NO₃], the “%ILS” value with Sarcoma 180 Ascites (setting [1]) is 6%; in the experiment on Sarcoma 180 Ascites (setting [2]), 1%; with Sarcoma 180 Ascites (setting [3]), -4%; in the experiment with Sarcoma 180 Ascites (setting [4]), -7%; in the experiment with Sarcoma 180 Ascites (setting [5]), 8%; in the experiment on Sarcoma 180 Ascites (setting [6]) it was 30%. Further, the Surv in the experiment on Sarcoma 180 Ascites (Dose 10 mg/kg ip), in the experiment on Sarcoma 180 Ascites (Dose 20 mg/kg ip), with Sarcoma 180 Ascites (Dose 40 mg/kg ip), with Sarcoma 180 Ascites (Dose 80 mg/kg ip), in the experiment on Sarcoma 180 Ascites (Dose 160 mg/kg ip) and with Sarcoma 180 Ascites (Dose 320 mg/kg ip) was 0/6 each time.

On to `Nc1nc2c(c(=O)[nH]1)[n+]([Pt]([NH2])([NH2])[Cl])cn2C1OC(CO)C(O)C1O.O=[N+]([O-])[O-]` (stereo not drawn) [cis-[Pt(NH₃)₂(guanosine)Cl]NO₃], for which the “%ILS” value with Sarcoma 180 Ascites (setting [1]) is on record as 2%; in the experiment on Sarcoma 180 Ascites (setting [2]) it was 15%; in the experiment on Sarcoma 180 Ascites (setting [3]) it was 23%; with Sarcoma 180 Ascites (setting [4]), 16%; in the experiment on Sarcoma 180 Ascites (setting [5]), 79%; in the experiment with Sarcoma 180 Ascites (setting [6]), -45%. For the same compound, the “%ILS” value was -24% with L1210 Leukemia (setting [1]); -4% with L1210 Leukemia (setting [2]); -4% in the experiment with L1210 Leukemia (setting [3]); 2% in the experiment on L1210 Leukemia (setting [4]); 8% in the experiment with L1210 Leukemia (setting [5]); -26% in the experiment with L1210 Leukemia (setting [6]). Moreover, the Surv in the experiment on Sarcoma 180 Ascites (Dose 10 mg/kg ip) is 0/6; in the experiment with Sarcoma 180 Ascites (Dose 20 mg/kg ip), 1/6; in the experiment with Sarcoma 180 Ascites (Dose 40 mg/kg ip), 0/6; in the experiment on Sarcoma 180 Ascites (Dose 80 mg/kg ip), 1/6; in the experiment with Sarcoma 180 Ascites (Dose 160 mg/kg ip) it was 3/6; with Sarcoma 180 Ascites (Dose 320 mg/kg ip), 1/6. Also, the Surv with L1210 Leukemia (Dose 10 mg/kg ip), in the experiment with L1210 Leukemia (Dose 20 mg/kg ip), in the experiment on L1210 Leukemia (Dose 40 mg/kg ip), with L1210 Leukemia (Dose 80 mg/kg ip), in the experiment on L1210 Leukemia (Dose 160 mg/kg ip) and in the experiment on L1210 Leukemia (Dose 320 mg/kg ip) was 0/6 throughout.

As for cis-[Pt(NH₃)₂(2′-deoxycytidine)Cl]NO₃, the “%ILS” value in the experiment with L1210 Leukemia (setting [1]) is on record as 12%; in the experiment with L1210 Leukemia (setting [2]) it was 23%; with L1210 Leukemia (setting [3]), 26%; in the experiment on L1210 Leukemia (setting [4]), 44%; in the experiment on L1210 Leukemia (setting [5]), 41%; in the experiment with L1210 Leukemia (setting [6]), 59%. Further, the Surv in the experiment on L1210 Leukemia (Dose 10 mg/kg ip), in the experiment with L1210 Leukemia (Dose 20 mg/kg ip), with L1210 Leukemia (Dose 40 mg/kg ip), with L1210 Leukemia (Dose 80 mg/kg ip), in the experiment on L1210 Leukemia (Dose 160 mg/kg ip) and in the experiment on L1210 Leukemia (Dose 320 mg/kg ip) was 0/6 each time.

On to cis-[Pt(NH₃)₂(2′-deoxyguanosine)Cl]Cl, for which the “%ILS” value is listed as 2% with Sarcoma 180 Ascites (setting [1]); 15% with Sarcoma 180 Ascites (setting [2]); 76% with Sarcoma 180 Ascites (setting [3]); 88% in the experiment with Sarcoma 180 Ascites (setting [4]); 85% in the experiment with Sarcoma 180 Ascites (setting [5]); 6% in the experiment on Sarcoma 180 Ascites (setting [6]). Besides, the Surv is given as 0/6 in the experiment on Sarcoma 180 Ascites (Dose 10 mg/kg ip); 1/6 in the experiment on Sarcoma 180 Ascites (Dose 20 mg/kg ip); 4/6 with Sarcoma 180 Ascites (Dose 40 mg/kg ip); 4/6 in the experiment with Sarcoma 180 Ascites (Dose 80 mg/kg ip); 4/6 in the experiment on Sarcoma 180 Ascites (Dose 160 mg/kg ip); 2/6 in the experiment on Sarcoma 180 Ascites (Dose 320 mg/kg ip).

Turning to “cis-[Pt(NH₃)₂Cl₂] [Positive Control, reference compound]”, in the experiment with Sarcoma 180 Ascites (8 mg/kg cisplatin in 0.5 mL 0.15 M NaCl, one value per experiment, run with the compound of that table section), the “Positive Control %ILS” value is 86% and 54% and 82% and 59%. Also, the “Positive Control Surv” value with Sarcoma 180 Ascites (setting [7]) is 4/6 and 0/6 and 3/6; with L1210 Leukemia (setting [7]), 0/6.
